Experimental data: patent US10357478B2, “Polyamide compound and pharmaceutical composition for treating mitochondrial genetic diseases” (Triplex Therapeutics Inc., priority 2011, dated 2019)

Experiments:
[1] = system: wild-type dsDNA (normal (wild-type) mtDNA template, 21 bases containing the 3243rd base); experiment: EMSA (electrophoretic mobility shift assay), binding to wild-type oligo-DNA; details: 10^−4 M polyamide, 1 hour at 37° C.
Protocol: (§1) In this Example, a binding specific to the base sequence was confirmed in vitro between the ML1 polyamide and the target. The assay was carried out in EMSA (electrophoretic mobility shift assay). The wild-type oligo-DNA with 21 bases containing the 3243rd base on which the A3243G mutation exists and the A3243G mutation oligo-DNA thereof were produced. A sense-stranded DNA with FITC bound at 5′-end and an antisense-stranded DNA were thermally denatured, slowly cooled, and annealed to obtain dsDNAs having the following sequence:
(§2) To dsDNA (50 pmol/10 μL), 40 μL of ddH2O was added and the whole was diluted to 1 pmol/μL. 4 pmol of the resulting dsDNA were mixed with the MLI polyamide solution so that the concentration became 10^−4M, and incubated for 1 hour at 37° C. Then, the sample was mixed with a loading buffer and applied on 20% non-denatured acrylamide gel (0.5×TBE) which was pre-run for 10 minutes at 350 V. An electrophoresis was carried out at 4′C and 100 V until BPB reached ¾ of the lower end of the gel, and a shift of the band was detected by LAS-3000 (Fuji Film).
(§3) The composition of the non-denatured acrylamide gel used in EMSA is shown as below: […]

[2] = system: A3243G mutant dsDNA (A3243G mutation mtDNA template); experiment: EMSA (electrophoretic mobility shift assay), binding to A3243G mutation oligo-DNA; details: 10^−4 M polyamide, 1 hour at 37° C.
Protocol: as §1, §2, §3

[3] = system: 2SD cybrid cells (MELAS cybrid cells); experiment: Replication of wild-type mtDNAs in MELAS cybrid cells (PCR-RFLP); format: cell-based; details: for increase level of wild-type mtDNAs in comparison with control: long-term (7, 15 or 35 days); for increase of wild-type mtDNAs: 35 days
Protocol: The MLI polyamide was given to the cultivated MELAS cybrid cells to confirm if the wild-type mtDNAs were positively reproduced in cells.
2SD cybrid cells were seeded on a 10 cm dish, and the MLI polyamide dissolved in 50% DMSO was added to the complete DMEM so that a final concentration thereof became 1 μM, 5 μM, or 10 μM. The medium to which the MLI polyamide was added was replaced every third day. In the control experiments, DMSO with the same diluted rate was added to the medium. The polyamide solution in 50% DMSO solution was diluted with ddH2O so that the concentration of DMSO in the medium became 0.1% or less, or 0.05% at a maximum.
Total DNAs were extracted from the cybrid cells treated by the MLI polyamide 14 days later, PCR-RFLP was then carried out, the bands were quantitatively analyzed by microchip electrophoresis (MCE-202 MultiNA; Shimadzu Corporation), and a mutation rate of the cybrid cells was analyzed.
Further, long-term effects were analyzed when the concentration of the MLI polyamide in the medium was 1 μM, 500 nM, or 100 nM. Total DNAs were extracted from the cybrid cells 7 days, 15 days, or 35 days later, PCR-RFLP was then carried out, electrophoresis was performed on 2% agarose gel (1×TAE), and an increase level of the wild-type mtDNAs was measured.

[4] = system: 143B cells; experiment: Cytotoxicity in DMEM without sodium pyruvate and uridine, 143B cells; format: cell-based; details: 100 nM, 500 nM or 1 μM, 30 hours or 1 week
Protocol: (§4) 143B cells or HeLa cells were cultured in a medium prepared by adding 1 μM of ML1 polyamide to a 10% FBS-added DMEM (free of sodium pyruvate and uridine) wherein respiratory chain-defective cells are inviable. The synthesis of the respiratory chain proteins in mitochondria is essential to life-support, and only a slight dysfunction thereof results in cell death.
(§5) 143B cells or HeLa cells were cultured for a week in normal DMEM, complete DMEM (containing 0.1 mg/mL of sodium pyruvate, and 50 μg/mL of uridine), complete DMEM with the ML1 polyamide, or DMEM with the ML1 polyamide, and survival or death was observed.
(§6) In the culture of 143B cells, the MLI polyamide was added at the concentration of 100 nM, 500 nM, or 1 μM, whereas in the culture of Hela cells, the MLI polyamide was added at the concentration of 1 μM.

[5] = system: HeLa cells; experiment: Cytotoxicity in DMEM without sodium pyruvate and uridine, HeLa cells; format: cell-based; details: 1 μM, 30 hours or 1 week
Protocol: as §4, §5, §6

[6] = 1 μM, 14 days, PCR-RFLP, microchip electrophoresis
[7] = 5 μM, 14 days, PCR-RFLP, microchip electrophoresis

CC(=O)Nc1cc(C(=O)Nc2cc(C(=O)Nc3cc(C(=O)NCCC(=O)Nc4cn(C)c(C(=O)Nc5cc(C(=O)Nc6cc(C(=O)NCCCC(=O)Nc7cn(C)c(C(=O)Nc8cn(C)c(C(=O)Nc9cc(C(=O)NCCC(=O)Nc%10cn(C)c(C(=O)Nc%11cc(C(=O)Nc%12cn(C)c(C(=O)NCCC(=O)NCCCN(C)C)n%12)n(C)c%11)n%10)n(C)c9)n8)n7)n(C)c6)n(C)c5)n4)n(C)c3)n(C)c2)n(C)c1 [ML1 polyamide, Ac-Py-Py-Py-β-Im-Py-Py-γ-Im-Im-Py-β-Im-Py-Im-β-Dp]
shift of the band of wild-type dsDNA in EMSA [1]: significantly shifted | shift of the band of wild-type dsDNA in EMSA ([1]; listed as MLI polyamide): clear shift of the band | shift of the band of A3243G mutant dsDNA in EMSA [2]: no significant shift | shift of the band of A3243G mutant dsDNA in EMSA ([2]; listed as MLI polyamide): not clearly observed | increase level of wild-type mtDNAs in comparison with control ([3]; 100 nM, PCR-RFLP, agarose gel): grossly visible increase level | increase level of wild-type mtDNA ([3]; 500 nM, 15 days, agarose gel): significant increase level | increase of wild-type mtDNAs ([3]; 500 nM, agarose gel): continuous increase level | increase of wild-type mtDNAs ([3]; 500 nM, agarose gel, listed as MLI polyamide): continuous increase | increase level of wild-type mtDNAs in comparison with control ([3]; 500 nM, PCR-RFLP, agarose gel): grossly visible increase level | increase level of wild-type mtDNA [3, 6]: increase levels of wild-type mtDNA | mutation rate of the cybrid cells [3, 6]: decrease of the mutation rate | increase level of wild-type mtDNA ([3]; 1 μM, 14 days, PCR-RFLP, microchip electrophoresis, listed as MLI polyamide): concentration-dependent increase level | increase level of wild-type mtDNAs in comparison with control ([3]; 1 μM, PCR-RFLP, agarose gel): grossly visible increase level | increase level of wild-type mtDNA [3, 7]: increase levels of wild-type mtDNA | mutation rate of the cybrid cells [3, 7]: decrease of the mutation rate | increase level of wild-type mtDNA ([3]; 5 μM, 14 days, PCR-RFLP, microchip electrophoresis, listed as MLI polyamide): concentration-dependent increase level | morphological changes or cell cytotoxicity [4]: did not show any morphological changes or cell cytotoxicity | morphological changes or cell cytotoxicity [5]: did not show any morphological changes or cell cytotoxicity
